# Publication PMC6255327, “Design of Antimicrobially Active Small Amphiphilic Peptide Dendrimers” (Molecules, 2009)
# Structures can show the parent of a compound that is named as a salt.
# Legend:
# [1] = system: S. aureus ATCC 25923; assay: microbe, parasite or virus in culture; type: cell-based, Staphylococcus aureus; settings: ATCC 25923, 24 h, pH 7.2; read-out: Minimal inhibitory concentration (MIC)
# Protocol: (§1) Bacteria. Staphylococcus aureus ATCC 25923, Pseudomonas aeruginosa ATCC 27853, Escherichia coli ATCC 25922 and Staphylococcus aureus ATCC 43300 were cultivated on tryptone - soy agar (TSA; Oxoid). Klebsiella pneumoniaeATCC 13882, Bordetella bronchiseptica ATCC 4617, Acinetobacter baumannii ATCC 19606 were cultivated onto nutrient agar (Difco). Escherichia coli ATCC BAA-198 was cultivated on TSA with ceftazidime (10 µg/mL or 15.7 μM; Sigma). All strains were incubated during 24 hrs at 37 °C.
# (§2) Medium. Mueller – Hinton Broth (Oxoid) was supplemented with cations: 12.5 mg Mg ^++/L and25 mg Ca^++/L. The pH of the medium after sterilization is between 7.2 and 7.4 [cation–adjusted Mueller – Hinton Broth” (CAMHB)].
# (§3) Reference method. Broth microdilution susceptibility test was performed as described in […] reference method M7-A7 (2). A series of the twofold dendrimers dilutions in DMSO and twofold polymyxin B and penicillin G dilutions in CAMHB were diluted […] with CAMHB. Aliquots (95 µL) were dispensed into microdilution sterile plates (Mar-Four). Then, bacteria inoculum (5 µL) containing 5 × 10^4 CFU/mL were added. The final concentration of dendrimers ranged from 128 to 2 µg/mL [or 105 to 1.6 μM for an average molecular mass for 7 series (1213) and 61 to 0.9 μM for an average molecular mass for 10 series(2,103)], polymyxin B and penicillin G from 8 – 0.15 µg /mL (or 5.8 to 0.1 μM and 21.5 to 0.4 μM, respectively for polymyxin B and penicillin G), all in twofold dilution steps. The plates were incubated at 35 °C and read after 18 or 24 hours depending on bacterial strain. MICs (Minimal Inhibitory Concentration) was defined as the lowest drug concentration that reduced growth by 100%.
# [2] = system: S. aureus ATCC 43300; type: cell-based, Staphylococcus aureus; settings: ATCC 43300, 24 h
# Protocol: as §1, §2, §3
# [3] = system: P. aeruginosa ATCC 27853; type: cell-based, Pseudomonas aeruginosa; settings: ATCC 27853, 24 h
# Protocol: as §1, §2, §3
# [4] = system: B. bronchiseptica ATCC 4617; type: cell-based, Bordetella bronchiseptica; settings: ATCC 4617, 24 h
# Protocol: as §1, §2, §3
# [5] = system: A. baumani ATCC 19606; type: cell-based, Acinetobacter baumannii; settings: ATCC 19606, 24 h
# Protocol: as §1, §2, §3
# [6] = system: K. pneumoniae ATCC 13882; type: cell-based, Klebsiella pneumoniae; settings: ATCC 13882, 24 h
# Protocol: as §1, §2, §3
# [7] = system: E. coli ATCC BAA-198; type: cell-based, Escherichia coli; settings: ATCC BAA-198, 24 h
# Protocol: as §1, §2, §3
# [8] = system: E.coli ATCC 25922; type: cell-based, Escherichia coli; settings: ATCC 25922, 24 h
# Protocol: as §1, §2, §3
# [9] = system: C. albicans ATCC 90028; type: cell-based, Candida albicans; settings: ATCC 90028, 48 h, pH 7
# Protocol: (§4) Yeasts: Candida albicans ATCC 90028, Candida parapsilosis ATCC 22019 and Candida krusei ATCC 6258 were cultivated onto Sabouraud dextrose agar (Difco) during 24 hrs at 35 °C.
# (§5) Medium: RPMI – 1640 (Sigma) supplemented with 0.2% (wt/vol) glucose, 0.3 g/L L-glutamine, 0.0053 g/L phenol red, buffered with morpholinopropanesulfonic acid (MOPS; Sigma) at a final concentration of 0.165 M and adjusted to pH 7.0 was prepared.
# (§6) Reference Method: The broth microdilution susceptibility test was performed as described in Clinical and Laboratory Standards Institute (CLSI) reference method M27 – A2 (1). A series of the twofold dendrimers and amphotericin B dilutions in DMSO were diluted 1:49 with RPMI.
# [10] = system: C. krusei ATCC 6258; assay: microbe, parasite or virus in culture; type: cell-based, Candida krusei; settings: ATCC 6258, 48 h, pH 7; read-out: Minimal inhibitory concentration (MIC)
# Protocol: as §4, §5, §6
# [11] = system: C. parapsilosis ATCC 22019; type: cell-based, Candida parapsilosis; settings: ATCC 22019, 48 h, pH 7
# Protocol: as §4, §5, §6
# [12] = system: human red blood cells; assay: Hemolysis assay; type: cell-based; settings: at a concentration of 400 μM, 1% hematocrit in PBS pH 7.4, 30 min at 23 °C, absorbance at 540 nm
# Protocol: Dendrimer induced hemolysis was observed as previously reported. Briefly, serum free human red blood cells obtained from the Institute of Hematology and Transfusion Medicine in Warsaw, were suspended in phosphate buffered saline (PBS, pH 7.4). Prepared suspension of 1% hematocrit was incubated with serial concentration of dendrimers for 30 min at 23 °C. After centrifugation (1,000 rpm, 5 min) the absorbance of supernatant was measured at 540 nm (Jasco 630, Japan). A value of 100% hemolysis was determined by incubation of erythrocytes with double-distilled water (30 min at 23^o). In a control experiment, cells were incubated in buffer without peptide and absorbance at 540 nm value was used as a blank.
# A - absorbance of the samples incubated with dendrimers; Ab – absorbance of the blank samples; A100% - absorbance of the reference; Ac - absorbance of red blood cells in PBS, hematocrit 1%.
Structure (SMILES),MIC [1],Minimal inhibitory concentration (MIC) [2],Minimal inhibitory concentration (MIC) [3],Minimal inhibitory concentration (MIC) [4],Minimal inhibitory concentration (MIC) [5],Minimal inhibitory concentration (MIC) [6],Minimal inhibitory concentration (MIC) [7],Minimal inhibitory concentration (MIC) [8],Minimal inhibitory concentration (MIC) [9],MIC [10],Minimal inhibitory concentration (MIC) [11],toxicity (hemolysis) [12]
"NCCCC[C@H](NC(=O)OCc1ccccc1Cl)C(=O)NCCCN[C@@H](CCCN(CCCNC(=O)[C@H](CCCCN)NC(=O)OCc1ccccc1Cl)CCCNC(=O)[C@H](CCCCN)NC(=O)OCc1ccccc1Cl)C(=O)NCc1ccccc1 [Compound 7g, N,N,N’-tris[(N^α-2-chlorobenzyloxycarbonyl)-L-lysil-3-aminopropyl]-L-ornithine benzylamide penta-hydrochloride]",10.9 µM,10.9 µM,21.8 µM,2.7 µM,5.4 µM,87 µM,10.9 µM,21.8 µM,10.9 µM,5.4 µM,5.4 µM,32%
"NCCCC[C@H](NC(=O)OCc1ccccc1Cl)C(=O)N[C@@H](Cc1ccccc1)C(=O)NCCCN(CCCNC(=O)[C@H](Cc1ccccc1)NC(=O)[C@H](CCCCN)NC(=O)OCc1ccccc1Cl)CCC[C@@H](CO)N(CCCNC(=O)[C@H](Cc1ccccc1)NC(=O)[C@H](CCCCN)NC(=O)OCc1ccccc1Cl)CCCNC(=O)[C@H](Cc1ccccc1)NC(=O)[C@H](CCCCN)NC(=O)OCc1ccccc1Cl [Compound 10c, N,N',N,N’-tetrakis[(N^α-2-chlorobenzyloxycarbonyl)-L-lysil-L-phenylalanyl-3-aminopropyl]-L-α,δ-diaminopentanol hexahydrochloride]",27.2 µM,13.6 µM,54 µM,6.8 µM,27.3 µM,54 µM,13.6 µM,27.3 µM,54 µM,27.3 µM,54 µM,
"NCCCC[C@H](NC(=O)OCc1ccccc1Cl)C(=O)N[C@@H](Cc1ccccc1)C(=O)NCCCN(CCCC[C@@H](CO)N(CCCNC(=O)[C@H](Cc1ccccc1)NC(=O)[C@H](CCCCN)NC(=O)OCc1ccccc1Cl)CCCNC(=O)[C@H](Cc1ccccc1)NC(=O)[C@H](CCCCN)NC(=O)OCc1ccccc1Cl)CCCNC(=O)[C@H](Cc1ccccc1)NC(=O)[C@H](CCCCN)NC(=O)OCc1ccccc1Cl [Compound 10d, N,N',N,N’-tetrakis[(N^α-2-chlorobenzyloxycarbonyl)-L-lysil-L-phenylalanyl-3-aminopropyl]-L-α,ε-diaminohexanol hexahydrochloride]",3.4 µM,1.7 µM,14 µM,1.7 µM,3.4 µM,>54 µM,3.4 µM,6.8 µM,6.8 µM,3.4 µM,3.4 µM,
